US7511041B2, “Fused azole-pyrimidine derivatives” (Bayer Pharmaceuticals Corporation, priority 2002, dated 2009)
Where two headings read alike, the source gives them in different places.

Key:
[1] = biological target: T1, Recombinant human PI3Kγ (full length human PI3K p110γ) (Homo sapiens, UniProt P48736); experiment: Kinase assay of PI3Kγ (solid-phase lipid kinase assay); assay type: biochemical
T1 construct: full length human PI3K p110γ fused with a His6-tag at the C-terminus; His6 (C); purchased ALEXIS BIOCHEMICALS #201-055-C010; host or cells: S. frugiperda 9 insect cells

[2] = in vitro PI3K-γ inhibitory activity, class symbols A-D, read-out: in vitro PI3K-gamma
[3] = Table 1, isozyme not given, read-out: in vitro
[4] = in vitro PI3K-γ inhibitory activity, class symbols, read-out: in vitro PI3K-gamma

T1 sequence (P48736 whole entry, the tested form may be a part): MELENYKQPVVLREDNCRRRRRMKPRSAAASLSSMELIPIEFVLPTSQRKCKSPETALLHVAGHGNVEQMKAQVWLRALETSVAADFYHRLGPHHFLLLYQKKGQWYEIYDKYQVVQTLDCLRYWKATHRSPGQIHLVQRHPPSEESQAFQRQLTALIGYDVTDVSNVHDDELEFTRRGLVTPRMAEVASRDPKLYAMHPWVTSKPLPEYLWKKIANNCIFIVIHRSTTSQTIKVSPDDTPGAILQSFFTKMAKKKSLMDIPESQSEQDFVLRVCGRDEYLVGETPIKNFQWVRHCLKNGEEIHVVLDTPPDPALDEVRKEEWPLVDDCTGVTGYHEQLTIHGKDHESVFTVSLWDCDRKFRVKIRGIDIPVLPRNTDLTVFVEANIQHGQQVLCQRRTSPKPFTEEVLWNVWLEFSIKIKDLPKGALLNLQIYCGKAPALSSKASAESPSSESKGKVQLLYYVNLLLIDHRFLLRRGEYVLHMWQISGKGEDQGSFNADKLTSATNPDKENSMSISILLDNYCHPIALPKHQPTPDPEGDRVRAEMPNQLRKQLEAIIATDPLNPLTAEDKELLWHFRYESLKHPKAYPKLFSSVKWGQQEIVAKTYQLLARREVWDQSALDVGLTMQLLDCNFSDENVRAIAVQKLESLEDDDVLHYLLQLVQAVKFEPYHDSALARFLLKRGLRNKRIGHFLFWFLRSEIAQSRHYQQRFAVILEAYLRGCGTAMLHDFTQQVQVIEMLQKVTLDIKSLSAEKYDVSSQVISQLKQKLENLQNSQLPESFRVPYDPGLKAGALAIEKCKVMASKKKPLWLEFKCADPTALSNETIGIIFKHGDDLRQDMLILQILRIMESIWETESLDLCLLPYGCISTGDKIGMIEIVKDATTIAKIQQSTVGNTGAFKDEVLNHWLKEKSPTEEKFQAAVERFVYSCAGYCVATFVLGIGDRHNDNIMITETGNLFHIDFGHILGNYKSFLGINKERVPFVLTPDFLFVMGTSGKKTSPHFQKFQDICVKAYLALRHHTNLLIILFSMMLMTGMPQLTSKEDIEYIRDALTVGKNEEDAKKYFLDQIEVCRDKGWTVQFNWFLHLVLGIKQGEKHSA

| IC50 [1, 2] | melting point | IC50 [1, 3] | IC50 [1, 4] | SMILES |
| --- | --- | --- | --- | --- |
| 100 to 500 nM | 254 °C | – | – | O=C(NC1=Nc2cc(Cl)ccc2C2=NCCN12)c1cccnc1 [Example 2-353] |
| > 2000 nM | 202 to 203 °C | – | – | CC(C)n1nnc2cc(C(=O)NC3=Nc4ccccc4C4=NCCN34)ccc21 [Example 2-311] |
| 100 to 500 nM | 276 °C | – | – | Cl.O=C(NC1=Nc2ccc(Cl)cc2C2=NCCN12)c1cccs1 [Example 2-356] |
| – | 228 °C (dec.) | – | < 100 nM | COc1cc(OC)c2c(c1)C1=NCCN1C(NC(=O)c1cccnc1)=N2 [Example 2-68] |
| – | 288 °C | – | < 100 nM | Cl.O=C(NC1=Nc2c(F)cccc2C2=NCCN12)c1cccnc1 [Example 2-100] |
| – | 275 °C (dec.) | – | 100 to 500 nM | O=C(NC1=Nc2ccccc2C2=NCCN12)c1ccc2cccnc2n1 [Example 2-177] |
| 100 to 500 nM | 319 °C (dec.) | – | – | Cl.O=C(NC1=Nc2ccccc2C2=NCCN12)c1cnc2ccccc2c1 [Example 2-317] |
| – | > 300 °C | – | < 100 nM | Nc1ccc(C(=O)NC2=Nc3ccccc3C3=NCCN23)cn1 [Example 2-149] |
| > 2000 nM | 185 to 187 °C | – | – | COc1ccccc1C(=O)NC1=Nc2ccccc2C2=NCCN12 [Example 2-232] |
| 100 to 500 nM | 296 °C | – | – | NC(=O)COc1ccc2c(c1)N=C(NC(=O)c1cccnc1)N1CCN=C21 [Example 2-206] |
| 100 to 500 nM | 226 °C | – | – | O=C(NC1=Nc2cc(C(F)(F)F)ccc2C2=NCCN12)c1cccs1 [Example 2-349] |
| > 2000 nM | 111 to 112 °C | – | – | O=C(NC1=Nc2ccccc2C2=NCCN12)C1CCN(C(=O)OCc2ccccc2)CC1 [Example 2-341] |
| – | 257 °C (dec.) | – | 100 to 500 nM | COc1cc2c(cc1OC)C1=NCCN1C(NC(=O)c1cncc(C)c1)=N2.Cl [Example 2-59] |
| > 2000 nM | 259 °C (dec.) | – | – | COc1ccc(C(=O)NC2=Nc3ccccc3C3=NCCN23)c(OC)c1.Cl [Example 2-237] |
| – | 333 °C (dec.) | – | 100 to 500 nM | Cl.Cn1cnc2cc(C(=O)NC3=Nc4ccccc4C4=NCCN34)ccc21 [Example 2-167] |
| – | > 290 °C | – | < 100 nM | Cc1ccc2c(c1)C1=NCCN1C(NC(=O)c1ccc3[nH]cnc3c1)=N2.Cl [Example 2-92] |

Continued, molecule first:

| SMILES | IC50 [1, 2] | melting point | IC50 [1, 3] | IC50 [1, 4] |
| --- | --- | --- | --- | --- |
| O=C(NC1=Nc2ccccc2C2=NCCN12)c1ccccc1[N+](=O)[O-].O=C(O)C(F)(F)F [Example 2-251] | > 2000 nM | 198 to 200 °C | – | – |
| CCC(C(=O)c1ccccc1)C1=Nc2ccccc2C2=NCCN21 (stereo not drawn) [Example 1-193] | – | 156 to 160 °C | > 2000 nM | – |
| O/C(=C\C1=Nc2c(Cl)cccc2C2=NCCN12)c1cccnc1 [Example 1-72] | – | 210 °C (dec.) | 100 to 500 nM | – |
| O/C(=C\C1=Nc2ccccc2C2=NCCN12)c1ccc[nH]1 [Example 1-150] | – | 247 °C | 100 to 500 nM | – |
| CN(C)CCOc1cccc2c1N=C(/C=C(\O)c1cccnc1)N1CCN=C21 [Example 1-86] | – | 186 to 187 °C | 100 to 500 nM | – |
| O/C(=C\C1=Nc2ccccc2C2=NCCN12)c1ccncc1 [Example 1-175] | – | 204 to 205 °C | 100 to 500 nM | – |
| Nc1ccccc1C(=O)NC1=Nc2ccccc2C2=NCCN12.O=C(O)C(F)(F)F [Example 2-257] | > 2000 nM | 175 °C (dec.) | – | – |
| CC(C)(C)/C(O)=C/C1=Nc2ccccc2C2=NCCN12 [Example 1-183] | – | 134 to 138 °C | 500 to 2000 nM | – |
| O/C(=C\C1=Nc2ccccc2C2=NCCN12)C(Cl)(Cl)Cl [Example 1-158] | – | 190 °C (dec.) | 100 to 500 nM | – |
| O/C(=C\C1=Nc2ccc(O)cc2C2=NCCN12)c1cccnc1 [Example 1-124] | – | 302 to 303 °C | 100 to 500 nM | – |
| COc1cc2c(cc1OC)C1=NCCN1C(/C=C(\O)c1ccc(Cl)nc1)=N2 [Example 1-55] | – | 283 °C | 100 to 500 nM | – |
